≈ marks a conversion by molar mass, not a printed value. Read-outs that look alike come from different tables or passages of the source.
What was measured:
[1] = log k'80 PLRP-S chromatographic descriptor; assay type: physicochemical; conditions: surrogate of log Dtol
Source text: Lipophilicity has been obtained in four different systems. BRlogD and ChromlogD are chromatographic surrogates of log Doct and, despite showing different values, are linearly correlated (Figure S4). Log k′ 80 PLRP-S is a surrogate of log Dtol. Log kw ^IAM mimics the interaction between the compounds and the phospholipids of membranes. The combination of the experimental lipophilicity descriptors is essential to evaluate lipophilicity in different regions of the membrane bilayer. This complete lipophilicity profile may give an idea of the permeability potential of poorly soluble compounds for which standard permeability measurements are unreliable. […] This is supported by its low IC50 value in the cell-based assay.

[2] = BRlogD chromatographic lipophilicity; assay type: physicochemical; conditions: XBridge Shield RP18, pH 7.0, 60% acetonitrile
Method: The original method was described in a previous paper.e Briefly, a HPLC Thermo Fisher Scientific Dionex Ultimate 3000 instrument equipped with a Low-Pressure Mixing Gradient Pump LPG-3400 SD, ACC-3000 autosampler with termostatable column compartment, a DAD-3000 RS Detector and Chromeleon Data System Version 7.2.10 was used. Deionized water and HPLC grade acetonitrile were used throughout. The mobile phases consisted of 20 mM ammonium acetate at pH 7.0 and acetonitrile 60% v/v. Samples were dissolved in a 1:1 mixture of buffer/acetonitrile in the concentration range of 50–100 ug/mL. A 10uL volume of each solution was injected at 30°C and flow rate was 1 mL/min. The dead time, t0, was determined by monitoring the baseline disturbance.
retention time (tR) was measured on a XBridgeTM Shield RP18 (Waters, 5cm x 4.6 mm, 5 µm particle size, 130Å pore size). Isocratic log k’ (capacity factor k’ = (tR - t0)/t0) values were measured. The relationship between log D and log k’60 has been determined previously and is reported below (Eq.
We termed this log D as BRlogD.

in vitro = conditions: dog, MDCK, pH 7.4
Kinetic solubility = assay type: physicochemical; conditions: for solubility kinetic at 2 h: phosphate buffered saline, PBS pH 7.4, 2% DMSO, 2 h room temperature, assay range 5-200 µM, read-out: KS (kinetic solubility)
Method: Using a stock solution of test compound in 100% DMSO, duplicate dilutions were prepared at a nominal concentration of 200 µM in 0.1 M phosphate buffered saline (PBS) at pH 7.4, with a 2% final DMSO content. Test compound calibration standards were prepared at 200 µM and 10 µM in 100%
DMSO. The PBS and DMSO dilutions were equilibrated on a shaking platform at room temperature for two hours prior to filtration using a Multiscreen HTS solubility filter plate (Millipore). Filtrates were analysed by LC-UV-MS and the concentration of compound in PBS filtrate determined by comparing the UV absorbance peak with that of the two DMSO calibration standards. Mass spectrometry will be used to confirm the presence of the expected molecular ion in the UV peak measured. The effective range of the assay is 5 – 200 µM. […]

[3] = Caco-2 membrane permeability assay; assay type: in vitro ADME; conditions: human
Method: (§1) Lucifer Yellow (LY) was added to the apical buffer in all wells to assess viability of the cell layer. As LY cannot freely permeate lipophilic barriers, a high degree of LY transport indicates poor integrity of the cell layer and wells with a LY Papp > 10 x 10-6 cm/s were rejected. Compound recovery from the wells was determined from MS responses (normalised to internal standard) in donor and acceptor chambers at the end of incubation compared to response in the donor chamber pre- […]
(§2) which may reduce the reliability of a result.
(§3) Caco-2 membrane permeability assay
(§4) Caco-2 cells (ECACC) were cultured in DMEM, 10% FBS, 1% NEAA, Hepes buffer 10 mM and in 50 U/mL penicillin and […] streptomycin. For transport studies, 200,000 cells/well were seeded on Millicell 24-well cell culture plates. After 24 hours of incubation at 37 °C and 5% CO2, the medium was changed with Enterocyte Differentiation Medium (Becton Dickinson), which allows Caco-2 cells to establish within three days a differentiated enterocyte monolayer. The permeability of the compounds across the cells’ monolayer was determined by measuring their transport in both directions: apical to basolateral (A → B) and basolateral to apical (B → A). For A → B directional transport, the donor working solution with test article 10 m M) was added to the apical (A) compartment and HBSS (pH 7.4) was added to the basolateral (B). For B → A directional transport, the donor working solution (with test article 10 m M) was added to the basolateral (B) compartment and HBSS (pH 7.4) was added to the apical (A). Samples were collected at T0 and after 2h incubation (5% CO2, 95% relative humidity, 37 °C) for LC-MS/MS analyses. The Papp expressed as nm/sec was calculated as follows: Papp (nm/sec) = (Vr/C0) x (1/A) x (Cr(t)/T) x 1000 000. Where
Vr is the volume of the solution in the receiving compartment (mL); C0 is initial test compound concentration in the donor compartment (expressed as area ratio); A is the membrane surface area (cm2); Cr (t) = measured concentration of the receiver well at time T120 (expressed as area ratio) and T is time of incubation (sec). Efflux ratio was also measured to understand if the compounds undergo active efflux: Efflux ratio = Papp [B > A] / Papp [A > B]. The rank order of apparent permeability of the test compound was compared with that of known reference compounds tested in the same experiment, including Sulpiride and Metoprolol (as marker for low and high permeability, respectively and Talinolol (as known P-gp substrate). […]

MDCK-WT wild-type cells [4] = test system: MDCK-WT wild-type cells
Pgp = biological target: T1, Pgp (Homo sapiens, UniProt P08183); assay: Pgp substrate assessment from Caco-2 permeability with/without Pgp inhibitor; assay type: in vitro ADME
T1 construct: host or cells: Caco-2 cells
T1 sequence (P08183 whole entry): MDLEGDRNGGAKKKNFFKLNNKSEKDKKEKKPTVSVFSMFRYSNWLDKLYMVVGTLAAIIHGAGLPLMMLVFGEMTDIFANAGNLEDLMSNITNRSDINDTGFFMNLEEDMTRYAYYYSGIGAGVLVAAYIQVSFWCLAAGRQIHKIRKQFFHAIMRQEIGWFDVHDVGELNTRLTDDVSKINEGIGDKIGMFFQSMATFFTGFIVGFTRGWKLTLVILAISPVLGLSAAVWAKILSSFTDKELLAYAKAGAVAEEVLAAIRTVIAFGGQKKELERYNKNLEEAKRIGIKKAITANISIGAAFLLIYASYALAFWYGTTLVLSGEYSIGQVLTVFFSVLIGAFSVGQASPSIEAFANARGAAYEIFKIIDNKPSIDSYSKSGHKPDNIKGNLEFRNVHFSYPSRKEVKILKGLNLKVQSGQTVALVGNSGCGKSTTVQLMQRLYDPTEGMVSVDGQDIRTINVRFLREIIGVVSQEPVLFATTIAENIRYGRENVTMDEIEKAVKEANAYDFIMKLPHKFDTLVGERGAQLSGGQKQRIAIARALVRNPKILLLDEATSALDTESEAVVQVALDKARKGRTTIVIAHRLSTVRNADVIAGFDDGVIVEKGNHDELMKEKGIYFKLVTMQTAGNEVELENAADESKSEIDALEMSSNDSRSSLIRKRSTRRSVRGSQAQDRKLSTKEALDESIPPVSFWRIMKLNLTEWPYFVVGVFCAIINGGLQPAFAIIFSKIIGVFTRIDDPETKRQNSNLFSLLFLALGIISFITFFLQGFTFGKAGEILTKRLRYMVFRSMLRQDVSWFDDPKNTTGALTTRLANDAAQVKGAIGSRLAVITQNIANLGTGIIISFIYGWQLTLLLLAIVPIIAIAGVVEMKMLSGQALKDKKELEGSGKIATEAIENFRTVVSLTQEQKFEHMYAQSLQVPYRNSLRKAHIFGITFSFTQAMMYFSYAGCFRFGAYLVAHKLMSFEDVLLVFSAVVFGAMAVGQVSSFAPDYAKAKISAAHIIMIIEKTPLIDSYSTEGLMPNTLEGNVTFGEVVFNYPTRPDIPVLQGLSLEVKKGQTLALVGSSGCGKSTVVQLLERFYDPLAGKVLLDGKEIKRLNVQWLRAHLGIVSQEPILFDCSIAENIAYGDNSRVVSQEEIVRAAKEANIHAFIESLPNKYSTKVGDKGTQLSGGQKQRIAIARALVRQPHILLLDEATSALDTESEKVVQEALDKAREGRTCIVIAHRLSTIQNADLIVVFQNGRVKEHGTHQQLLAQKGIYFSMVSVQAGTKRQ
Method: as §1, §2, §3
as §4, with “For B → A directional transport, the donor working solution (with test article 10 m M) was added to the basolateral (B) compartment and HBSS (pH 7.4) was added to the apical (A). Samples were collected at T0 and after 2h incubation (5% CO2, 95% relative humidity, 37 °C) for LC-MS/MS analyses.” left out, “Where” left out
Vr is the volume of the solution in the receiving compartment (mL); C0 is initial test compound concentration in the donor compartment (expressed as area ratio); A is the membrane surface area (cm2); Cr (t) = measured concentration of the receiver well at time T120 (expressed as area ratio) and T is time of incubation (sec). Efflux ratio was also measured to understand if the compounds undergo active efflux: Efflux ratio = Papp [B > A] / Papp [A > B]. […]

MDCK-WT wild-type cells [5] = assay: MDCK-WT permeability assay
[6] = MDCK-WT permeability assay; conditions: dog, MDCK, pH 7.4
[7] = Caco-2, pH 7.4, Caco-2 Papp AB with Pgp inhibitor
[8] = Caco-2, pH 7.4, Caco-2 Papp AB without Pgp inhibitor
[9] = Caco-2, pH 7.4, Caco-2 Papp BA with Pgp inhibitor
[10] = Caco-2, pH 7.4, Caco-2 Papp BA without Pgp inhibitor
[11] = Caco-2, pH 7.4, A to B, without Pgp inhibitor, pH 7.4, 2 h, read-out: Caco-2 Papp AB without Pgp inhibitor
[12] = Caco-2, pH 7.4, B to A, without Pgp inhibitor, pH 7.4, 2 h, read-out: Caco-2 Papp BA without Pgp inhibitor (converted)
[13] = Caco-2, pH 7.4, with Pgp inhibitor (name and concentration not stated), A to B, with Pgp inhibitor, pH 7.4, 2 h, read-out: Caco-2 Papp AB with Pgp inhibitor
[14] = Caco-2, pH 7.4, with Pgp inhibitor (name and concentration not stated), B to A, with Pgp inhibitor, pH 7.4, 2 h, read-out: Caco-2 Papp BA with Pgp inhibitor (converted)

| SMILES | logk'80 PLRP-S [1] | BRlogD [2] | Papp A→B at 1 h, 10 µM (in vitro) [×10⁻⁶ cm/s] | kinetic solubility (in words) (Kinetic solubility) | solubility kinetic at 2 h (Kinetic solubility) [µM] | Papp A→B at 2 h, 10 µM [3, 7] [×10⁻⁶ cm/s] | Papp A→B at 2 h, 10 µM [3, 8] [×10⁻⁶ cm/s] | Papp B→A at 2 h, 10 µM [3, 9] [×10⁻⁶ cm/s] | Papp B→A at 2 h, 10 µM [3, 10] [×10⁻⁶ cm/s] | permeability in the MDCK model (in words) (MDCK-WT wild-type cells [4]) | Pgp substrate (Pgp; Caco-2 model) | permeability in the MDCK model (in words) (MDCK-WT wild-type cells [5]) | Papp A→B at 1 h, 10 µM [6] [×10⁻⁶ cm/s] | Papp A→B at 2 h, 10 µM [3, 11] [×10⁻⁶ cm/s] | Papp B→A at 2 h, 10 µM [3, 12] [×10⁻⁶ cm/s] | Papp A→B at 2 h, 10 µM [3, 13] [×10⁻⁶ cm/s] | Papp B→A at 2 h, 10 µM [3, 14] [×10⁻⁶ cm/s] | Pgp substrate (Pgp; Caco-2) |
| --- | --- | --- | --- | --- | --- | --- | --- | --- | --- | --- | --- | --- | --- | --- | --- | --- | --- | --- |
| Cn1cc2c3nc(ncc31)Nc1cnn(c1)CCCNCCOc1ccc-2cc1 [Compound 5a] | -0.65 | 0.64 | 18.4 ± 0.6 | less soluble | 20 ± 3 (≈ 7.79 µg/mL) | 19.9 ± 2.7 | 10.2 ± 1.5 | 13.5 | 24.2 | highly permeable | – | – | – | – | – | – | – | – |
| Cn1cc2c3nc(ncc31)Nc1cnn(c1)CCCNC(=O)COc1ccc-2cc1 [Compound 5b] | -0.68 | 0.53 | – | less soluble | 16 ± 1 (≈ 6.46 µg/mL) | – | – | – | – | – | YES | highly permeable | 21 ± 0.8 | 3 ± 0.6 | 21.5 | 22.8 ± 2.8 | 15.9 | – |
| c1cc2nc(n1)Nc1cnn(c1)CCCNCCOc1ccc(cc1)N2 [Compound 6a] | -0.93 | -0.29 | 5.8 ± 1.1 | highly soluble | 188 ± 18 (≈ 66.1 µg/mL) | 8.7 ± 1.9 | 1.9 ± 0.5 | 7 | 22 | moderately permeable | – | – | – | – | – | – | – | YES |
| O=C1COc2ccc(cc2)Nc2ccnc(n2)Nc2cnn(c2)CCCN1 [Compound 6b] | -0.85 | -0.03 | – | highly soluble | 198 ± 3 (≈ 72.3 µg/mL) | – | – | – | – | – | YES | moderately permeable | 4.8 ± 1 | 0.6 ± 0.1 | 22.3 | 5.5 ± 0.2 | 20.3 | – |

From paper PMC12067128, “Macrocyclization: Enhancing Drug-like Properties of Discoidin Domain Receptor Kinase Inhibitors” (ACS Medicinal Chemistry Letters, 2025)
